Assay results published in patent publication US11963966B2, “Compositions and methods for treating ovarian tumors” (Dana-Farber Cancer Institute, Inc., priority 2017, dated 2024).
“Also recorded” adds a separate entry of the source. Read-outs that look alike come from different tables or passages of the source.

Columns and labels:
PDX model DF20 SC tumors = assay: PDX model DF20, SC injected cancer cells, IP JSI-124 vs vehicle, BLI; type: in vivo, mice
Description: (§1) FIG. 7A-FIG. 7E are a series of graphs and images that depict the impact of JAK/STAT-inhibition on spheroid formation in vivo and anti-tumor activity. […] Each of these were performed following intraperitoneal (IP) or subcutaneous (SC) injection of cancer cells followed by IP therapy with JSI-124 vs. vehicle. Each group includes 5 mice. The inverted triangle indicates the time=0 of cancer cell injection. […] Mice were injected IP with tumor cells and one week later started treatment for a total 14 days. Each group includes 5 mice. Y-axis indicates log of bioluminescence imaging (BLI) signal (log total flux in p/s). Values are given as mean of log BLI signal, error bars indicate standard deviation from the mean. ***p<0.0001 (two-sided t test comparing mean±STDEV at Day 15 of treatment). […] Each group includes 5 mice. Y-axis indicates log BLI signal (log total flux in p/s). Values are given as mean of log BLI signal, error bars indicate standard deviation from the mean. ***p<0.0001 (two-sided t test comparing mean±STDEV at Day 15 of treatment). […] Mice were injected SC with tumor cells and one week later started treatment for a total 14 days. Each group includes 5 mice. Y-axis indicates log BLI signal (log total flux in p/s). Values are given as mean of log BLI signal, error bars indicate standard deviation from the mean. ***p<0.0001 (two-sided t test comparing mean±STDEV at Day 15 of treatment). […] Each group includes 5 mice. Y-axis indicates log BLI signal (log total flux in p/s). Values are given as mean of log BLI signal, error bars indicate standard deviation from the mean. ***p<0.0001 (two-sided t test comparing mean±STDEV at Day 15 of treatment).
A frequently used treatment modality for advanced ovarian cancer is the intraperitoneal administration of chemotherapy, such as cisplatin, which has local effects, but is also systemically reabsorbed to treat potential metastatic disease. […] Tumor growth was compared following IP JSI-124 treatment v. vehicle.

[1] = system: cells from abdominal ascites of ovarian patient NACT14; assay: Sensitivity of patient-derived ovarian cells in a microfluidic device; type: cell-based; conditions: 10 μM, ~800 cells in 1 microliter, imaging 48 hours after drug
Description: Heterogeneous cell population isolated from abdominal ascites of ovarian patient NACT14. A limited number of cells (˜800 cells) in a volume of 1 microliter were tested for sensitivity of JSI124. On day 0, the cells were seeded in the microfluidic device. On day 1, drug was administered, together with a blue dye (FIG. 29-FIG. 31).
Hoechst confocal imaging (stained nuclei) was used to observe cells forty eight (48) hours after the drug was added (FIG. 32-FIG. 35).

[2] = system: patient ascites-derived spheroids; assay: Mesothelial clearance (invasion through mesothelial monolayer); type: cell-based; conditions: pre-treatment 30 or 120 minutes followed by drug removal
Description: (§2) FIG. 6A-FIG. 6G are a series of graphs and images depicting the impact of JAK/STAT-inhibition on spheroid formation, invasion and killing ex vivo and in vitro. FIG. 6A a histogram (FIG. 11B), showing drug screening with 14 compounds (at 1 μM) inhibiting the JAK/STAT pathway in OVACR4. Relative viability compared to DMSO control measured by CTG. […] The same library was screened in 2D-cultures of OVACR4 (FIG. 11A), and 2D-cultures of OVACR8 (FIG. 11C) and 3D-cultures of OVACR8 (FIG. 11D). FIG. 6B is a series of plots showing drug sensitivity testing using the GILA assay in platinum-resistant ex vivo spheroid cultures of patients DF3291 and DF3266, The X-axis indicates the log μM concentration of drugs indicated in the legend, Y-axis indicates the percentage of luminescence signal as indicator for viability relatively to DMSO treated cells. In both patients, half maximal effective concentration (EC50) were ˜100 nM and ˜10 nM, respectively, while other drugs routinely used for the treatment of (platinum-resistant) ovarian cancer had EC50>10 μM. FIG. 6C is a series of images of microscopic analysis of spheroids with different drug treatments to highlight the morphologic changes during therapy with drugs listed. Inhibition of JAK/STAT pathway disrupts ex vivo spheroid cultures. […] 20 spheroids clusters were analyzed for each iteration. […]

[3] = system: spheroids of ovarian cancer cell lines OVCAR8 and TKYNU; assay: as above; type: cell-based; conditions: treatment 30 minutes followed by drug removal
Description: as §2

[4] = system: PDX model DF20 malignant ascites; assay: PDX model DF20, IP injected cancer cells (malignant ascites), IP JSI-124 vs vehicle, BLI; type: in vivo, mice
Description: as §1

[5] = system: ex vivo patient-derived ovarian cancer spheroids; assay: Microscopic analysis of patient-derived spheroids/cells after drug treatment; type: cell-based
Description: as §2

[6] = system: platinum-resistant ex vivo spheroid cultures of patients DF3266, DF3288, DF3291; assay: Drug sensitivity testing with the growth in low attachment (GILA) assay; type: cell-based
Description: FIG. 6A-FIG. 6G are a series of graphs and images depicting the impact of JAK/STAT-inhibition on spheroid formation, invasion and killing ex vivo and in vitro. FIG. 6A a histogram (FIG. 11B), showing drug screening with 14 compounds (at 1 μM) inhibiting the JAK/STAT pathway in OVACR4. Relative viability compared to DMSO control measured by CTG. […] The same library was screened in 2D-cultures of OVACR4 (FIG. 11A), and 2D-cultures of OVACR8 (FIG. 11C) and 3D-cultures of OVACR8 (FIG. 11D). FIG. 6B is a series of plots showing drug sensitivity testing using the GILA assay in platinum-resistant ex vivo spheroid cultures of patients DF3291 and DF3266, The X-axis indicates the log μM concentration of drugs indicated in the legend, Y-axis indicates the percentage of luminescence signal as indicator for viability relatively to DMSO treated cells. In both patients, half maximal effective concentration (EC50) were ˜100 nM and ˜10 nM, respectively, while other drugs routinely used for the treatment of (platinum-resistant) ovarian cancer had EC50>10 μM. FIG. 6C is a series of images of microscopic analysis of spheroids with different drug treatments to highlight the morphologic changes during therapy with drugs listed. Inhibition of JAK/STAT pathway disrupts ex vivo spheroid cultures. […] The X-axis indicates established ovarian cancer cell line ID. Y-axis indicates the relative number of formed spheroids when treated with either JSI-124 or carboplatin compared to untreated parental controls. Error bars indicate the standard deviation from the mean number of spheroids. […] JAK/STAT inhibition prevents spheroid formation. […] The Y-axis indicates the clearance ability (using arbitrary units). 20 spheroids clusters were analyzed for each iteration. Data is shown as mean (horizontal bar), interquartile range (box), and minimum and maximum (whiskers). Statistical analysis was performed using 1-way analysis of variance (ANOVA) and post hoc Tukey-Kramer **P<0.05. […] FIG. 6G is a histogram showing the inhibition of the JAK/STAT pathway.
Single-cell RNA-sequencing was performed on these platinum-resistant patient samples, using the growth in low attachment (GILA) assay (Rotem et al., 2015 Proc. Natl. Acad. Sci. U.S.A, 112:5708-5713; B. Izar and A. Rotem, 2016 Curr. Protoc. Mol. Biol., 116:28.8.1-28.8.12). […] In contrast, all spheroid cultures were resistant to carboplatin, cisplatin, olaparib and paclitaxel at a similar dose range, with the exception of cisplatin with an EC50 of ˜10 μM in patients DF3266 and DF3288.

[7] = SC tumors established 3 weeks, then IP treatment 14 days
[8] = SC tumors established 7 days, then 14 days IP therapy
[9] = ascites allowed to form 3 weeks, then IP treatment 14 days
[10] = tumor cells IP, 7 days growth, then 14 days IP therapy

CC(C)(O)/C=C/C(=O)[C@](C)(O)[C@H]1[C@@H](O)C[C@@]2(C)[C@@H]3CC=C4[C@H](C=C(O)C(=O)C4(C)C)[C@]3(C)C(=O)C[C@]12C [JSI-124, cucurbitacin I]
Established SC tumors (PDX model DF20 SC tumors; [7]): significant and near complete elimination of SC tumors | mean day 15 log BLI signal±standard deviation (PDX model DF20 SC tumors; [7]): 8.52×10^8±3.1×10^8 p/s | Growth of SC tumors (PDX model DF20 SC tumors; [8]): significantly inhibit development of tumors growth of SC tumors | mean day 15 log BLI signal±standard deviation (PDX model DF20 SC tumors; [8]): 5.55×10^8±2.2×10^8 p/s | Effectiveness against patient-derived ovarian cells [1]: Effective | Ability to invade (clear) the mesothelial monolayer [2]: significantly reduced ability to invade the mesothelial monolayer; also recorded: unable to invade through the mesothelial monolayer | Ability to invade the mesothelium [3]: abolished their ability to invade the mesothelium; also recorded: unable to invade through the mesothelial monolayer | BLI signal of established malignant ascites [4, 9]: significant reduction in BLI signal of malignant ascites | mean day 15 log BLI signal±standard deviation [4, 9]: 1.29×10^9±6×10^8 p/s | Development of malignant ascites [4, 10]: completely abrogated development of malignant ascites | mean day 15 log BLI signal±standard deviation [4, 10]: 1.47×10^8±6.5×10^7 p/s | Morphology of ex-vivo patient-derived ovarian cells after treatment ([5]; FIG. 36): massive elimination of tumor cells | Spheroid morphology / integrity ([5]; platinum-resistant ex vivo spheroids): disintegration of the solid 3D spheroid structure | Emax ([6]; Homo sapiens): ≤ 99% | EC50 ([6]; Homo sapiens, read-out: EC50 (viability, luminescence relative to DMSO), patient DF3266): ~10 nM | EC50 ([6]; Homo sapiens, read-out: EC50 (viability, luminescence relative to DMSO), patient DF3291): ~100 nM | EC50 values, single-agent cytotoxic activity ([6]; all tested models (DF3266, DF3288, DF3291)): nanomolar ranges
